Measurements as given in patent US11702404B2, “GLP-1R modulating compounds” (priority 2019, dated 2023).
Where two headings read alike, the source gives them in different places.

Assays:
GLP-1R = GLP-1R (Homo sapiens, UniProt P43220); assay: GLP-1R activation: cAMP increase in CHO cells stably expressing GLP-1R; assay type: cell-based; conditions: read-out: EC50
[1] = Microsomal stability, human liver microsomes (predicted hepatic clearance); conditions: predicted from in vitro microsomal stability data
[2] = cAMP increase, CHO cells stably expressing GLP-1R, 10 point dose response, 30 minutes incubation

Sequence of GLP-1R (P43220 24-463): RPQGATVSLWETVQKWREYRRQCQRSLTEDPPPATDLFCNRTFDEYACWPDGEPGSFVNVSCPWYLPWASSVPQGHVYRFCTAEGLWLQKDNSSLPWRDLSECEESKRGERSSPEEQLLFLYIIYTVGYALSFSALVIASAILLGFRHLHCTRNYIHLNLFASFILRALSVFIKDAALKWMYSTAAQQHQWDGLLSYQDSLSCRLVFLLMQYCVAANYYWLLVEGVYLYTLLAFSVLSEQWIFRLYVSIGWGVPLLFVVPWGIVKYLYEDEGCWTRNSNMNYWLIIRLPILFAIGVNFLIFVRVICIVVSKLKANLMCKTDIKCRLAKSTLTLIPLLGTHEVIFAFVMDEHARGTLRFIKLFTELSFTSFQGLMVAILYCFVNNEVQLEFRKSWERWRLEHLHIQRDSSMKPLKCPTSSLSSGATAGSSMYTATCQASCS

SMILES | EC50 (GLP-1R) [nM] | Predicted Hepatic Clearance (Pred. Cl.) [1] [mL/min/kg] | EC50 (GLP-1R; [2]) [nM]
CC(=O)N1CC2CC1(Cn1c(Cc3cc(F)c(-c4cccc(OCc5ccc(C#N)cc5F)n4)cc3F)nc3ccc(C(=O)O)cc31)C2 [Example 849, 1-((2-acetyl-2-azabicyclo[2.1.1]hexan-1-yl)methyl)-2-(4-(6-((4-cyano-2-fluorobenzyl)oxy)pyridin-2-yl)-2,5-difluorobenzyl)-1H-benzo[d]imidazole-6-carboxylic acid] | 14.2 | 5.33 | –
COc1cc(C#N)ncc1COc1cccc(-c2cc(F)c(Cc3nc4ccc(C(=O)O)cc4n3C[C@@H]3CCO3)cc2F)n1 [Example 850, (S)-2-(4-(6-((6-Cyano-4-methoxypyridin-3-yl)methoxy)pyridin-2-yl)-2,5-difluorobenzyl)-1-(oxetan-2-ylmethyl)-1H-benzo[d]imidazole-6-carboxylic acid] | – | 3.33 | 0.23
O=C(O)c1ccc2nc(Cc3cc(F)c(-c4cccc(OCc5cnc(Cl)cc5F)n4)cc3F)n(C[C@@H]3CCO3)c2c1 [Example 851] | – | 2.5 | 0.25
N#Cc1ccc(COc2ccc(F)c(-c3cc(F)c(Cc4nc5c(F)cc(C(=O)O)cc5n4C[C@@H]4CCO4)cc3F)n2)cn1 [Example 852, (S)-2-(4-(6-((6-cyanopyridin-3-yl)methoxy)-3-fluoropyridin-2-yl)-2,5-difluorobenzyl)-4-fluoro-1-(oxetan-2-ylmethyl)-1H-benzo[d]imidazole-6-carboxylic acid] | – | 4.5 | 0.24
COc1cc(Cl)ncc1COc1cccc(-c2cc(F)c(Cc3nc4ccc(C(=O)O)cc4n3C[C@@H]3CCO3)cc2F)n1 [Example 853] | – | 9 | 0.15
NC(=O)c1cc(F)c(COc2cccc(-c3cc(F)c(Cc4nc5ccc(C(=O)O)cc5n4C[C@@H]4CCO4)cc3F)n2)cn1 [Example 854, (S)-2-(4-(6-((6-carbamoyl-4-fluoropyridin-3-yl)methoxy)pyridin-2-yl)-2,5-difluorobenzyl)-1-(oxetan-2-ylmethyl)-1H-benzo[d]imidazole-6-carboxylic acid] | – | 2.33 | 0.55
COCCn1c(Cc2cnc(-c3cccc(OCc4ccc(C#N)cc4F)n3)c(F)c2)nc2ccc(C(=O)O)cc21 [Example 855] | – | 5.5 | 12.6
NC(=O)c1ccc(COc2cccc(-c3cc(F)c(Cc4nc5ccc(C(=O)O)cc5n4C[C@@H]4CCO4)cc3F)n2)c(OC(F)F)n1 [Example 857, (S)-2-(4-(6-((6-carbamoyl-2-(difluoromethoxy)pyridin-3-yl)methoxy)pyridin-2-yl)-2,5-difluorobenzyl)-1-(oxetan-2-ylmethyl)-1H-benzo[d]imidazole-6-carboxylic acid] | – | 3.17 | 0.35
N#Cc1ccc(COc2cccc(-c3cc(F)c(Cc4nc5ccc(C(=O)O)cc5n4C[C@@H]4CCO4)cc3F)n2)c(OC(F)F)n1 [Example 858, (S)-2-(4-(6-((6-cyano-2-(difluoromethoxy)pyridin-3-yl)methoxy)pyridin-2-yl)-2,5-difluorobenzyl)-1-(oxetan-2-ylmethyl)-1H-benzo[d]imidazole-6-carboxylic acid] | – | 8.83 | 2.27
COCCn1c(Cc2cc(F)c(-c3cccc(OCc4ccc(C#N)c(F)c4F)n3)cc2F)nc2ccc(C(=O)O)cc21 [Example 859] | – | 1.83 | 11.6
COCCn1c(Cc2cc(F)c(-c3cccc(OCc4ccc(C(F)F)nc4)n3)cc2F)nc2ccc(C(=O)O)cc21 [Example 860] | – | 1.83 | 22.6
COCCn1c(Cc2cc(F)c(-c3cccc(OCc4ccc(C(F)(F)F)nc4)n3)cc2F)nc2ccc(C(=O)O)cc21 [Example 861] | – | 1.83 | 16.5
COCCn1c(Cc2cc(F)c(-c3cccc(OCc4cnc(C(F)(F)F)s4)n3)cc2F)nc2ccc(C(=O)O)cc21 [Example 862] | – | 4.33 | 16.2
COCCn1c(Cc2cc(F)c(-c3cccc(OCc4cc(F)c(C(F)F)cc4F)n3)cc2F)nc2ccc(C(=O)O)cc21 [Example 863] | – | 4.83 | 5.51
COCCn1c(Cc2cc(F)c(-c3cccc(OCc4ccc(-n5cccn5)nc4)n3)cc2F)nc2ccc(C(=O)O)cc21 [Example 865] | – | 4.33 | 29.8
COCCn1c(Cc2cc(F)c(-c3cccc(OCc4ccc(OC)nc4)n3)cc2F)nc2ccc(C(=O)O)cc21 [Example 866, 2-[[2,5-difluoro-4-[6-[(6-methoxy-3-pyridyl)methoxy]-2-pyridyl]phenyl]methyl]-3-(2-methoxyethyl)benzimidazole-5-carboxylic acid] | – | 8.17 | 16.1
COCCn1c(Cc2cc(F)c(-c3cccc(OCc4cc(F)c(C(F)(F)F)cc4F)n3)cc2F)nc2ccc(C(=O)O)cc21 [Example 867] | – | 1.83 | 2.41
COCCn1c(Cc2cc(F)c(-c3cccc(OCc4ccc(C(F)(F)F)cn4)n3)cc2F)nc2ccc(C(=O)O)cc21 [Example 868] | – | 3.5 | 5.48
COCCn1c(Cc2cc(F)c(-c3cccc(OCc4ccc(Cl)cn4)n3)cc2F)nc2ccc(C(=O)O)cc21 [Example 869] | – | 6.5 | 6.28

SMILES | EC50 (GLP-1R) [nM] | Predicted Hepatic Clearance (Pred. Cl.) [1] [mL/min/kg] | EC50 (GLP-1R; [2]) [nM]
COCCn1c(Cc2cc(F)c(-c3cccc(OCc4ccc(C#N)cn4)n3)cc2F)nc2ccc(C(=O)O)cc21 [Example 870] | – | 1.83 | 17.6
COCCn1c(Cc2cc(F)c(-c3cccc(OCc4cc(C)c(C(F)(F)F)cc4F)n3)cc2F)nc2ccc(C(=O)O)cc21 [Example 871] | – | 2 | 30.8
COCCn1c(Cc2cc(F)c(-c3cccc(OCc4ccc(C(F)(F)F)c(F)c4F)n3)cc2F)nc2ccc(C(=O)O)cc21 [Example 872, 2-[[4-[6-[[2,3-difluoro-4-(trifluoromethyl)phenyl]methoxy]-2-pyridyl]-2,5-difluoro-phenyl]methyl]-3-(2-methoxyethyl)benzimidazole-5-carboxylic acid] | – | 1.83 | 5.09
COCCn1c(Cc2cc(F)c(-c3cccc(OCc4cccc5c4COC5)n3)cc2F)nc2ccc(C(=O)O)cc21 [Example 873] | – | 12.2 | 83.8
COCCn1c(Cc2cc(F)c(-c3cccc(OCc4ccc(Br)c5c4COC5)n3)cc2F)nc2ccc(C(=O)O)cc21 [Example 874] | – | 1.83 | 34.7
COCCn1c(Cc2cc(F)c(-c3cccc(OCc4ccc(C(C)=O)cc4)n3)cc2F)nc2ccc(C(=O)O)cc21 [Example 875] | – | 9.33 | 2.32
COCCn1c(Cc2cc(F)c(-c3cccc(OCc4cccc(Br)c4)n3)cc2F)nc2ccc(C(=O)O)cc21 [Example 876] | – | 1.83 | 27.6
O=C(O)c1ccc2nc(Cc3cc(F)c(-c4nc(OCc5ccc(C(F)F)cc5F)ncc4F)cc3F)n(C[C@@H]3CCO3)c2c1 [Example 877] | – | 7.17 | 0.51
N#Cc1cc(F)c(COc2ncc(F)c(-c3cc(F)c(Cc4nc5ccc(C(=O)O)cc5n4C[C@@H]4CCO4)cc3F)n2)cc1F [Example 878] | – | 8.83 | 0.78
N#Cc1ccc(COc2ncc(F)c(-c3cc(F)c(Cc4nc5ccc(C(=O)O)cc5n4C[C@@H]4CCO4)cc3F)n2)c(F)c1 [Example 879, 2-[[4-[2-[(4-cyano-2-fluoro-phenyl)methoxy]-5-fluoro-pyrimidin-4-yl]-2,5-difluoro-phenyl]methyl]-3-[[(2S)-oxetan-2-yl]methyl]benzimidazole-5-carboxylic acid] | – | 6 | 0.51
N#Cc1ccc(COc2ncc(F)c(-c3ccc(Cc4nc5c(F)cc(C(=O)O)cc5n4C[C@@H]4CCO4)c(F)c3)n2)c(F)c1 [Example 880] | – | 7.5 | 0.26
N#Cc1ccc(COc2ncc(F)c(-c3ccc(Cc4nc5c(F)cc(C(=O)O)cc5n4C[C@@H]4CCO4)cc3F)n2)c(F)c1 [Example 881] | – | 8.83 | 0.29
N#Cc1ccc(COc2ncc(F)c(-c3ccc(Cc4nc5c(F)cc(C(=O)O)cc5n4C[C@@H]4CCO4)cc3)n2)c(F)c1 [Example 882] | – | 6.17 | 0.18
N#Cc1ccc(COc2ncc(F)c(-c3cc(F)c(Cc4nc5c(F)cc(C(=O)O)cc5n4CC4(CF)CC4)cc3F)n2)c(F)c1 [Example 883] | – | 7.5 | 0.3
O=C(O)c1cc(F)c2nc(Cc3cc(F)c(-c4nc(OCc5ccc(C(F)(F)F)cc5F)ncc4F)cc3F)n(C[C@@H]3CCO3)c2c1 [Example 884] | – | 3.17 | 0.19
N#Cc1cc(F)c(COc2ncc(F)c(-c3cc(F)c(Cc4nc5c(F)cc(C(=O)O)cc5n4C[C@@H]4CCO4)cc3F)n2)cc1F [Example 885] | – | 9.17 | 0.22
N#Cc1ccc(COc2ncc(F)c(-c3cc(F)c(Cc4nc5c(F)cc(C(=O)O)cc5n4C[C@@H]4CCO4)cc3F)n2)c(F)c1 [Example 886] | – | 5.83 | 0.18
CC(C)(C)C(=O)N1CC[C@@H]1Cn1c(Cc2ccc(-c3cccc(OCc4ccc(C#N)cc4F)n3)cc2F)nc2ccc(C(=O)O)cc21 [Example 887, 2-[[4-[6-[(4-cyano-2-fluoro-phenyl)methoxy]-2-pyridyl]-2-fluoro-phenyl]methyl]-3-[[(2R)-1-(2,2-dimethylpropanoyl)azetidin-2-yl]methyl]benzimidazole-5-carboxylic acid] | 8310 | 8.83 | –
